Molecular target: T1, N-type calcium channel (NTCC) (Homo sapiens, UniProt Q00975)
T1 construct: host or cells: IMR32 cells differentiated with dibutyryl cAMP and bromodeoxyuridine
Test: FLIPR calcium mobilization assay for N-type calcium channel (differentiated IMR32 cells)
Type: cell-based
Settings: about 1.0 μM or less; calcium mobilization and/or electrophysiological assay
Experimental: Cell maintenance and differentiation. Unless noted otherwise, cell culture reagents were purchased from Mediatech of Hemdon, Md. IMR32 cells (American Type Culture Collection, ATCC, Manassas, Va.) were routinely cultured in growth medium consisting of minimum essential medium containing 10% fetal bovine serum (FBS, Hyclone, Logan, Utah), 100 U/mL penicillin, 100 μg/mL streptomycin, 2 mM L-glutamine, 1 mM sodium pyruvate, and 1× MEM non-essential amino acids. 80-90% confluent flasks of cells were differentiated using the following differentiation medium: Growth medium plus 1 mM dibutyryl cyclic AMP (Sigma, St. Louis, Mo.), and 2.5 μM bromodeoxyuridine (Sigma). Cells were differentiated for 8 days by replacing differentiation medium every 2-3 days.
FLIPR Calcium Mobilization Assay for N-type Calcium Channel. One day prior to performing this assay, differentiated IMR32 cells were treated with 1× CellStripper, and seeded on poly-D-lysine-coated 96-well clear-bottom black plates (Becton Dickinson, Franklin Lakes, N.J.) at 200,000 cells/well. On the day of the assay, the cell plates were washed with IMR32 buffer (127 mM NaCl, 1 mM KCl, 2 mM MgCl2, 700 μM NaH2PO4, 5 mM CaCl2, 5 mM NaHCO3, 8 mM HEPES, 10 mM glucose, pH 7.4), then pre-stimulated with KCl and loaded as follows: 0.05 mL of IMR32 buffer, 0.05 mL of each compound tested diluted in IMR32 buffer containing 20 μM nitrendipine (Sigma), and 0.1 mL KCl dissolved in IMR32 buffer, plus Fluo-4 were added (3 μM final concentration, Molecular Probes, Eugene, Oreg.). Final test compound concentrations ranged from about 846 pM to about 17 μM, final nitrendipine concentration was 5 μM, and final KCl concentration was 90 mM. After 1 hour, the cells were washed twice with 0.05 mL of each compound tested in nitrendipine-containing IMR32 buffer (no KCl or Fluo-4), and then replaced with 0.1 mL of each compound tested in nitrendipine-containing IMR32 buffer. Plates were then transferred to a Fluorimetric imaging Plate Reader (FLIPR^96, Molecular Devices, Inc., Sunnyvale, Calif.) for assay. The FLIPR measured basal Fluo-4 fluorescence for 315 seconds (i.e., 5 minutes and 15 seconds), then added 0.1 mL KCl agonist dissolved in IMR32 buffer and measured fluorescence for another 45 seconds. Final test compound concentrations on the cells after FLIPR read ranged from about 846 pM to about 17 μM, final nitrendipine concentration was 5 μM, and final KCl concentration was 90 mM. Data were collected over the entire time course and analyzed using Excel, Graph Pad Prism (version 3.02, Graph Pad, San Diego, Calif.), or an in-house non-linear regression analysis software.

T1 sequence (Q00975 whole entry): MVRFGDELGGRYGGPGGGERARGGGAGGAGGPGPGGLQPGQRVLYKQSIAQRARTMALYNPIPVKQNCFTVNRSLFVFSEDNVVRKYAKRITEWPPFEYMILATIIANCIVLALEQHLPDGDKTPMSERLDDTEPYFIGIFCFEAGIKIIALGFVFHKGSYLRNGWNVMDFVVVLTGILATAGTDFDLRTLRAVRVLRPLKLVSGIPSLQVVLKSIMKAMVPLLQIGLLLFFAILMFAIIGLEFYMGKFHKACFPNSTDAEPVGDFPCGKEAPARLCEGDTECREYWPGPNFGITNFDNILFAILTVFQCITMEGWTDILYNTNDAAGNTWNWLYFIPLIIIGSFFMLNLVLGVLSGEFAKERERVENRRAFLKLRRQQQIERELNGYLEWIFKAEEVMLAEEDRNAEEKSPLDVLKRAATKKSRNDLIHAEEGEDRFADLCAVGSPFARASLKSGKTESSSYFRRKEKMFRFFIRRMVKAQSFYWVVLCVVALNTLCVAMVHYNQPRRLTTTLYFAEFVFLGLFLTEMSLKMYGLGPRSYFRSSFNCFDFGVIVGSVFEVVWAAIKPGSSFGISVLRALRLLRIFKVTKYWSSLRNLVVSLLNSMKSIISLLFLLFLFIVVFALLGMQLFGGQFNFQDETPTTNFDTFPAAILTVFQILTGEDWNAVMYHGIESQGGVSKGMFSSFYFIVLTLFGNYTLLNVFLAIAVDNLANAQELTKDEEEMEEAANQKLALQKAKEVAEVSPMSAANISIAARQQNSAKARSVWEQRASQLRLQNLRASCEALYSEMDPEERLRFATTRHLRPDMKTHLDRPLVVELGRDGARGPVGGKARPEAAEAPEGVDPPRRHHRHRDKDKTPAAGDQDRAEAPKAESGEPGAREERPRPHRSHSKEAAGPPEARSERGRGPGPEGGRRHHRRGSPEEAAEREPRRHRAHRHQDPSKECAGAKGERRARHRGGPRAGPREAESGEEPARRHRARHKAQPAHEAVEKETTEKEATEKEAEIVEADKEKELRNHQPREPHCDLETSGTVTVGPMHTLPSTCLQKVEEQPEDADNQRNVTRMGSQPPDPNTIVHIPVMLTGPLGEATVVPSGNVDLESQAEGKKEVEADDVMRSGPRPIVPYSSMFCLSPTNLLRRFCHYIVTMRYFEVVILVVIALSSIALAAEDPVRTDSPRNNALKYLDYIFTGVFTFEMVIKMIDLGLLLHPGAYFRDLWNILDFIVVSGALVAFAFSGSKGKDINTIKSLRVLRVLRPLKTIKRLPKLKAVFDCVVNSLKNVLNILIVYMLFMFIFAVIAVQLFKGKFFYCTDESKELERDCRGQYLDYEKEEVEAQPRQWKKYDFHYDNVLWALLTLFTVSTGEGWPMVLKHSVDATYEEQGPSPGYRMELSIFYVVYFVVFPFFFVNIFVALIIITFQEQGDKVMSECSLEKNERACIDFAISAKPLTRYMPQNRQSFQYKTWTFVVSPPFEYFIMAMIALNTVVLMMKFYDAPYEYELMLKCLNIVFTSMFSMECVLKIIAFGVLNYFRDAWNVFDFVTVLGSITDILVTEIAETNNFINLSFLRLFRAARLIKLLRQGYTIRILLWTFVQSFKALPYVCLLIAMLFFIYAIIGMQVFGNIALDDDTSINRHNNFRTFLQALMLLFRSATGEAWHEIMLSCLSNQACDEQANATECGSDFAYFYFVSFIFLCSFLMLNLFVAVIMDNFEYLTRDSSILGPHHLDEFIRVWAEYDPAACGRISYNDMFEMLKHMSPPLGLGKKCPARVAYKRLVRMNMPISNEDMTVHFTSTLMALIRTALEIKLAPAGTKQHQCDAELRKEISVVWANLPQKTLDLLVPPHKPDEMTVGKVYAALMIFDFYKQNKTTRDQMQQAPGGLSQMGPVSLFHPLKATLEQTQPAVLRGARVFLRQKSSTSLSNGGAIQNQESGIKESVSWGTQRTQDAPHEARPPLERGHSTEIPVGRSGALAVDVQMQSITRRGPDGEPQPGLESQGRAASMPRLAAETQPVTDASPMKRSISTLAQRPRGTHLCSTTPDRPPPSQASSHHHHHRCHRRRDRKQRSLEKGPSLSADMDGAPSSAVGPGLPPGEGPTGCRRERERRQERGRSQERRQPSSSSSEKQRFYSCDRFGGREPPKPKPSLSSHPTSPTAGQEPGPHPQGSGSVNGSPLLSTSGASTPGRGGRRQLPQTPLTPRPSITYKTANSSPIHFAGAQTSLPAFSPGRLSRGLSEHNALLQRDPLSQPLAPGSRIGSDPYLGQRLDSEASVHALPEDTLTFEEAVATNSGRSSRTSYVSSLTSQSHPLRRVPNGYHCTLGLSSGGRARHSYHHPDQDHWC

IC50, ≤ 1000 nM:
O=S(=O)(c1cccc(C(F)(F)F)c1)N1CCC(=NOCCC2CCCCC2)CC1 [Example 294, 1-(3-(Trifluoromethyl)phenylsulfonyl)piperidin-4-one O-2-cyclohexylethyl oxime]
N#Cc1cccc(C(ON=C2CCN(S(=O)(=O)c3ccc(NC4CCCC4)nc3)CC2)C2CC2)c1 (stereo not drawn) [Example 275, 3-((1-(6-(Cyclopentylamino)pyridin-3-ylsulfonyl)piperidin-4-ylideneaminooxy)(cyclopropyl)methyl)benzonitrile]
COC(=O)c1cccc(S(=O)(=O)N2CCC(=NOC(c3ccc(F)cc3)c3ccc(F)cc3)CC2)c1 [Example 286, Methyl 3-(4-(bis(4-fluorophenyl)methoxyimino)piperidin-1-ylsulfonyl)benzoate]
CC(C)CCON=C1CCN(S(=O)(=O)c2cccc(C(F)(F)F)c2)CC1 [Example 366, 1-(3-(Trifluoromethyl)phenylsulfonyl)piperidin-4-one O-isopentyl oxime]
Cn1c(CON=C2CCN(S(=O)(=O)c3ccc(OC(F)(F)F)cc3)CC2)nc2ccccc21 [Example 160, 1-(4-(Trifluoromethoxy)phenylsulfonyl)piperidin-4-one O-(1-methyl-1H-benzo[d]imidazol-2-yl)methyl oxime]
O=S(=O)(c1ccc(OC(F)(F)F)cc1)N1CCC(=NOC[C@@H]2Cc3ccccc3N2)CC1 [Example 263, (S)-1-(4-(trifluoromethoxy)phenylsulfonyl)piperidin-4-one O-indolin-2-ylmethyl oxime]
O=S(=O)(c1ccc(F)cc1)N1CCC(=NOCc2cccc(C(F)(F)F)c2)CC1 [Example 62, 1-(4-Fluorobenzenesulfonyl)piperidin-4-one O-(3-trifluoromethylbenzyl)oxime]
COc1ccc(CON=C2CCN(S(=O)(=O)c3ccc(OC(F)(F)F)cc3)CC2)cn1 [Example 144, 1-(4-Trifluoromethoxybenzenesulfonyl)piperidin-4-one O-(6-methoxypyridin-3-ylmethyl)oxime]
O=S(=O)(c1ccc(OC(F)(F)F)cc1)N1CCC(=NOC(c2cccc(C(F)(F)F)c2)C2CC2)CC1 (stereo not drawn) [Example 307, 1-(4-(Trifluoromethoxy)phenylsulfonyl)piperidin-4-one O-cyclopropyl(3-(trifluoromethyl)phenyl)methyl oxime]
CCCCc1ccc(S(=O)(=O)N2CCC(=NOCc3ccccc3C(F)(F)F)CC2)cc1 [Example 78, 1-(4-Butylbenzenesulfonyl)piperidin-4-one O-(2-trifluoromethylbenzyl)oxime]
N#Cc1cccc(CON=C2CCN(S(=O)(=O)c3ccc(OC(F)(F)F)cc3)CC2)n1 [Example 173, 6-((1-(4-(Trifluoromethoxy)phenylsulfonyl)piperidin-4-ylideneaminooxy)methyl)picolinonitrile]
CCCCc1ccc(S(=O)(=O)N2CCC(=NOCc3cccnc3)CC2)cc1 [Example 70, 1-(4-Butylbenzenesulfonyl)piperidin-4-one O-pyridin-3-ylmethyloxime]
COc1ncccc1CON=C1CCN(S(=O)(=O)c2ccc(OC(F)(F)F)cc2)CC1 [Example 111, 1-(4-Trifluoromethoxybenzenesulfonyl)piperidin-4-one O-(2-methoxypyridin-3-ylmethyl)oxime]
O=S(=O)(c1ccc(OC(F)(F)F)cc1)N1CCC(=NOCc2ccc(Cl)cn2)CC1 [Example 127, 1-(4-Trifluoromethoxybenzenesulfonyl)piperidin-4-one O-(5-chloropyridin-2-ylmethyl)oxime]
N#Cc1cccc(C(ON=C2CCN(S(=O)(=O)c3ccc(OC(F)(F)F)cc3)CC2)C2CC2)c1 (stereo not drawn) [Example 186, 3-(Cyclopropyl(1-(4-(trifluoromethoxy)phenylsulfonyl)piperidin-4-ylideneaminooxy)methyl)benzonitrile]
N#Cc1cccc(S(=O)(=O)N2CCC(=NOCc3cccc(C(F)(F)F)c3)CC2)c1 [Example 284, 3-(4-(3-(Trifluoromethyl)benzyloxyimino)piperidin-1-ylsulfonyl)benzonitrile]
O=S(=O)(c1ccccc1)N1CCC(=NOCc2cccc(C(F)(F)F)c2)CC1 [Example 51, 1-Benzenesulfonylpiperidin-4-one O-(3-trifluoromethylbenzyl)oxime]
N#Cc1ccccc1S(=O)(=O)N1CCC(=NOC(c2ccc(F)cc2)c2ccc(F)cc2)CC1 [Example 229, 2-(4-(Bis(4-fluorophenyl)methoxyimino)piperidin-1-ylsulfonyl)benzonitrile]
N#Cc1cccc(C(ON=C2CCN(S(=O)(=O)c3ccc(NC4CC4)nc3)CC2)C2CC2)c1 (stereo not drawn) [Example 274, 3-(Cyclopropyl(1-(6-(cyclopropylamino)pyridin-3-ylsulfonyl)piperidin-4-ylideneaminooxy)methyl)benzonitrile]
O=[N+]([O-])c1ccc(CON=C2CCN(S(=O)(=O)c3ccc(OC(F)(F)F)cc3)CC2)cc1 [Example 134, 1-(4-Trifluoromethoxybenzenesulfonyl)piperidin-4-one O-(4-nitrobenzyl)oxime]
O=S(=O)(c1ccccn1)N1CCC(=NOC(c2ccc(F)cc2)c2ccc(F)cc2)CC1 [Example 288, 1-(Pyridin-2-ylsulfonyl)piperidin-4-one O-bis(4-fluorophenyl)methyl oxime]
CCCCC(C)ON=C1CCN(S(=O)(=O)c2cccc(C(F)(F)F)c2)CC1 (stereo not drawn) [Example 367, 1-(3-(Trifluoromethyl)phenylsulfonyl)piperidin-4-one O-hexan-2-yl oxime]
O=c1ccc(CON=C2CCN(S(=O)(=O)c3ccc(OC(F)(F)F)cc3)CC2)cn1-c1ccc(F)cc1 [Example 314, 1-(4-Fluorophenyl)-5-((1-(4-(trifluoromethoxy)phenylsulfonyl)piperidin-4-ylideneaminooxy)methyl)pyridin-2(1H)-one]
CN(C)c1cccc(CON=C2CCN(S(=O)(=O)c3ccc(OC(F)(F)F)cc3)CC2)c1 [Example 128, 1-(4-Trifluoromethoxybenzenesulfonyl)piperidin-4-one O-(3-dimethylaminobenzyl)oxime]
N#Cc1cccc(C(ON=C2CCN(S(=O)(=O)c3ccc(OC(F)(F)F)cc3)CC2)c2ccncc2)c1 (stereo not drawn) [Example 269, 3-(Pyridin-4-yl(1-(4-(trifluoromethoxy)phenylsulfonyl)piperidin-4-ylideneaminooxy)methyl)benzonitrile]
N#Cc1ccnc(CON=C2CCN(S(=O)(=O)c3ccc(OC(F)(F)F)cc3)CC2)c1 [Example 178, 2-((1-(4-(trifluoromethoxy)phenylsulfonyl)piperidin-4-ylideneaminooxy)methyl)isonicotinonitrile]
O=S(=O)(c1ccc(NC2CC2)nc1)N1CCC(=NOCc2cccc(C(F)(F)F)c2)CC1 [Example 321, 1-(6-Cyclopropylaminopyridine-3-sulfonyl)piperidin-4-one O-(3-trifluoromethylbenzyl)oxime]
CCCCc1ccc(S(=O)(=O)N2CCC(=NOC(c3ccc(F)cc3)c3ccc(F)cc3)CC2)cc1 [Example 231, 1-(4-Butylphenylsulfonyl)piperidin-4-one O-bis(4-fluorophenyl)methyl oxime]
O=S(=O)(c1cccc(Cl)c1)N1CCC(=NOC(c2ccc(F)cc2)c2ccc(F)cc2)CC1 [Example 292, 1-(3-Chlorophenylsulfonyl)piperidin-4-one O-bis(4-fluorophenyl)methyl oxime]
O=S(=O)(c1ccc(OC(F)(F)F)cc1)N1CCC(=NOCC2Oc3ccccc3O2)CC1 [Example 265, 1-(4-(Trifluoromethoxy)phenylsulfonyl)piperidin-4-one O-benzo[d][1,3]dioxol-2-ylmethyl oxime]
